Experiment [1] deals with T1, HMGCR (TM1-8)-GFP (Cricetulus griseus, UniProt P00347).
T1 sequence (P00347 1-346): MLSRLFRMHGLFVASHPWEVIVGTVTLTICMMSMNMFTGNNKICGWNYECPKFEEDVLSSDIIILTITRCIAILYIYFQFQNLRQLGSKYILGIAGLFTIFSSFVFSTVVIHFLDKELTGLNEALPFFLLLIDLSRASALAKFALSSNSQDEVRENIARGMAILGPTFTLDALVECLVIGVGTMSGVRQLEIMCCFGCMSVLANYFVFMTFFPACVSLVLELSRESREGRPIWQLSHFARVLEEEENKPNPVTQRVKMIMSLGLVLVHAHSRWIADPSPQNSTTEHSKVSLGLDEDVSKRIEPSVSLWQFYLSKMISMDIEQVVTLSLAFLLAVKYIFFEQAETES

Experiment [2] concerns the target T1, HMGCR (TM1-8)-GFP. Description: HMGCR (TM1-8)-GFP fluorescent assay (high-content imaging) in CHG cells. Conditions: for effect on HMGCR (TM1-8)-GFP intensity: CHG cells.
[3] abbreviates: 16 h, read-out: HMGCR (TM1-8)-GFP fluorescent intensity, mean.
[4] abbreviates: read-out: Mean (HMGCR (TM1-8)-GFP signal relative to 0 μM = 100).

The structures appear in SMILES notation. Where two headings read alike, the source gives them in different places.

`CC(C)CCC[C@@H](C)[C@H]1CC[C@H]2[C@@H]3CC=C4C(C)(C)[C@@H](O)CC[C@]4(C)[C@H]3CC[C@]12C` [Compound 7, 4,4-Dimethyl cholesterol]: in experiment [1], the DC50 is 14.6 µM. In experiment [2] (setting [3]), the remaining activity at 0.01 µM is 101%, the remaining activity at 0.1 µM stood at 104%, the remaining activity at 0.3 µM stood at 92.8% and the remaining activity at 1 µM was 83.5%. Also, in experiment [2] (setting [3]), the remaining activity at 3 µM turned out to be 71.9%, the remaining activity at 10 µM is 56.7%, the remaining activity at 20 µM was 47.9% and the remaining activity at 30 µM was 35.9%.
Regarding `CCC1(CC)C2=CCC3C(CC[C@@]4(C)C3CC[C@@H]4[C@H](C)CCCC(C)C)[C@@]2(C)CC[C@@H]1O` (stereo partly shown) [Compound 8], in experiment [2] (setting [3]), the remaining activity at 0.1 µM came to 90.5%, the remaining activity at 0.3 µM was found to be 79.5%, the remaining activity at 1 µM amounted to 82.7% and the remaining activity at 3 µM was determined as 83.2%. Moreover, in experiment [2] (setting [3]), the remaining activity at 10 µM is 89.3%, the remaining activity at 20 µM was found to be 91.4% and the remaining activity at 30 µM was 93.9%. The “effect on HMGCR (TM1-8)-GFP intensity” value in experiment [2] (16 h) was “did not decrease the HMGCR (TM1-8)-GFP intensity”.
Regarding `C=CCC1(CC=C)C2=CCC3C(CC[C@@]4(C)C3CC[C@@H]4[C@H](C)CCCC(C)C)[C@@]2(C)CC[C@@H]1O` (stereo partly shown) [Compound 9], in experiment [2] (setting [3]), the remaining activity at 0.1 µM is 95.3%, the remaining activity at 0.3 µM is 92.7%, the remaining activity at 1 µM came out at 80.9% and the remaining activity at 3 µM stood at 90.8%. In experiment [2] (setting [3]), the remaining activity at 10 µM is 93.7%, the remaining activity at 20 µM came out at 88.7% and the remaining activity at 30 µM was 90.8%. The “effect on HMGCR (TM1-8)-GFP intensity” value in experiment [2] (16 h) is “did not decrease the HMGCR (TM1-8)-GFP intensity”.
Regarding `CC(C)CCC[C@@H](C)[C@H]1CCC2C3CC=C4C5(CCCCC5)[C@@H](O)CC[C@]4(C)C3CC[C@@]21C` (stereo partly shown) [Compound 10], in experiment [2] (setting [3]), the remaining activity at 0.1 µM came out at 100%, the remaining activity at 0.3 µM was 106%, the remaining activity at 1 µM turned out to be 92.7% and the remaining activity at 3 µM is 102%. In addition, in experiment [2] (setting [3]), the remaining activity at 10 µM turned out to be 103%, the remaining activity at 20 µM amounted to 98.6% and the remaining activity at 30 µM was 101%. For the same compound, the “effect on HMGCR (TM1-8)-GFP intensity” value in experiment [2] (16 h) was “did not decrease the HMGCR (TM1-8)-GFP intensity”.
Take `CCC1(CCOC)C2=CCC3C(CCC4(C)C(C(C)CCCC(C)C)CCC34)C2(C)CCC1O` (stereo not shown) [Compound 11]: in experiment [2] (setting [3]), the remaining activity at 0.1 µM is 90.8%, the remaining activity at 0.3 µM amounted to 97.1%, the remaining activity at 1 µM was 100% and the remaining activity at 3 µM stood at 91.7%. Moreover, in experiment [2] (setting [3]), the remaining activity at 10 µM is 93.3%, the remaining activity at 20 µM came out at 97.4% and the remaining activity at 30 µM was 95.4%. Besides, the “effect on HMGCR (TM1-8)-GFP intensity” value in experiment [2] (16 h) is on record as “did not decrease the HMGCR (TM1-8)-GFP intensity”.
For `COCCC1(CCOC)C2=CCC3C(CC[C@@]4(C)C3CC[C@@H]4[C@H](C)CCCC(C)C)[C@@]2(C)CC[C@@H]1O` (stereo partly shown) [Compound 14], in experiment [2] (setting [3]), the remaining activity at 0.1 µM was 90.2%, the remaining activity at 0.3 µM was 107%, the remaining activity at 1 µM is 99.6% and the remaining activity at 3 µM was found to be 93.4%. In experiment [2] (setting [3]), the remaining activity at 10 µM was determined as 99.4%, the remaining activity at 20 µM came to 106% and the remaining activity at 30 µM turned out to be 98.6%. Further, the “effect on HMGCR (TM1-8)-GFP intensity” value in experiment [2] (16 h) is listed as “did not decrease the HMGCR (TM1-8)-GFP intensity”.
For the compound `CC(C)CCC[C@@H](C)[C@H]1CCC2C3C(CC[C@@]21C)[C@@]1(C)CC[C@H](O)C(C)(C)C1=C[C@H]3N=[N+]=[N-]` (stereo partly shown) [Compound 18], in experiment [2] (setting [3]), the remaining activity at 0.1 µM was 99.5%, the remaining activity at 0.3 µM amounted to 103%, the remaining activity at 1 µM is 103% and the remaining activity at 3 µM turned out to be 99.4%. Moreover, in experiment [2] (setting [3]), the remaining activity at 10 µM was 96.7%, the remaining activity at 20 µM is 98.8% and the remaining activity at 30 µM was found to be 93%.
On to `CC(C)CCC[C@@H](C)[C@H]1CCC2C3C(CC[C@@]21C)[C@@]1(C)CC[C@H](O)C(C)(C)C1=C[C@H]3N` (stereo partly shown) [Compound 19], for which, in experiment [2] (setting [3]), the remaining activity at 0.1 µM worked out at 90.2%, the remaining activity at 0.3 µM turned out to be 107%, the remaining activity at 1 µM came out at 99.6% and the remaining activity at 3 µM worked out at 93.4%. Moreover, in experiment [2] (setting [3]), the remaining activity at 10 µM was 99.4%, the remaining activity at 20 µM was 106% and the remaining activity at 30 µM worked out at 99.6%.
Regarding `CC(=O)N[C@@H]1C=C2C(C)(C)[C@@H](O)CC[C@]2(C)C2CC[C@@]3(C)C(CC[C@@H]3[C@H](C)CCCC(C)C)C21` (stereo partly shown) [Compound 22], in experiment [2] (setting [3]), the remaining activity at 0.1 µM came to 97.3%, the remaining activity at 0.3 µM was 91.4%, the remaining activity at 1 µM was 89.7% and the remaining activity at 3 µM was 101%. Also, in experiment [2] (setting [3]), the remaining activity at 10 µM is 97.5%, the remaining activity at 20 µM was determined as 97.9% and the remaining activity at 30 µM turned out to be 93.5%.
Regarding `CC(C)CCC[C@@H](C)[C@H]1CCC2C3C(=O)C=C4C(C)(C)[C@@H](O)CC[C@]4(C)C3CC[C@@]21C` (stereo partly shown) [Compound 33], in experiment [2] (setting [3]), the remaining activity at 0.1 µM was found to be 93%, the remaining activity at 0.3 µM was determined as 97.3%, the remaining activity at 1 µM came to 94.4% and the remaining activity at 3 µM was 96.3%. In experiment [2] (setting [3]), the remaining activity at 10 µM turned out to be 95.2% and the remaining activity at 20 µM was found to be 85%.
In the case of `CC(C)CCC[C@@H](C)[C@H]1CCC2C3C(=NO)C=C4C(C)(C)[C@@H](O)CC[C@]4(C)C3CC[C@@]21C` (stereo partly shown) [Compound 34], the DC50 in experiment [1] came to 60.8 µM. In experiment [2] (setting [3]), the remaining activity at 0.03 µM turned out to be 99.1%, the remaining activity at 0.1 µM was 103%, the remaining activity at 0.3 µM worked out at 93.6% and the remaining activity at 1 µM turned out to be 75.2%. Further, in experiment [2] (setting [3]), the remaining activity at 3 µM worked out at 65.6%, the remaining activity at 10 µM stood at 62%, the remaining activity at 20 µM was 65.8% and the remaining activity at 30 µM stood at 62.1%.
`CC(C)CCC[C@@H](C)[C@H]1CC[C@H]2[C@@H]3[C@@H](O)C=C4C(C)(C)[C@@H](O)CC[C@]4(C)[C@H]3CC[C@]12C` [Compound 35, 4,4-Dimethyl 7β-hydroxyl cholesterol] came in with a DC50 in experiment [1] of 3.6 µM. Also, in experiment [2] (setting [3]), the remaining activity at 0.01 µM amounted to 100%, the remaining activity at 0.03 µM turned out to be 104%, the remaining activity at 0.1 µM was 87.1% and the remaining activity at 0.3 µM was found to be 83.8%. For the same compound, in experiment [2] (setting [3]), the remaining activity at 1 µM was 68.2%, the remaining activity at 3 µM turned out to be 54.5%, the remaining activity at 10 µM was 37% and the remaining activity at 20 µM amounted to 20%.
In turn, `CC(C)CCC[C@@H](C)[C@H]1CCC2C3C(CC[C@@]21C)[C@@]1(C)CC[C@H](O)C(C)(C)C1=C[C@H]3O` (stereo partly shown) [Compound 36] showed a DC50 in experiment [1] of 11.9 µM. Also, in experiment [2] (setting [3]), the remaining activity at 0.01 µM came to 106%, the remaining activity at 0.03 µM stood at 91.7%, the remaining activity at 0.1 µM turned out to be 108% and the remaining activity at 0.3 µM was determined as 91.3%. In addition, in experiment [2] (setting [3]), the remaining activity at 1 µM worked out at 93.6%, the remaining activity at 3 µM is 69.8%, the remaining activity at 10 µM worked out at 58.6% and the remaining activity at 20 µM is 37.2%.
Turning to `COC(=O)CC[C@@H](C)C1CCC2C3C(CC[C@@]21C)[C@@]1(C)CC[C@H](O)C(C)(C)C1=C[C@@H]3O` (stereo partly shown) [Compound 49], the DC50 in experiment [1] amounted to 6.67 µM. In addition, in experiment [2] (setting [4]), the remaining activity at 0.156 µM was found to be 93%, the remaining activity at 0.313 µM was 100%, the remaining activity at 0.625 µM came to 100% and the remaining activity at 1.25 µM stood at 93%. For the same compound, in experiment [2] (setting [4]), the remaining activity at 2.5 µM came out at 78.9%, the remaining activity at 5 µM is 58.3% and the remaining activity at 10 µM is 37.6%.
Consider `C[C@H](CCC(=O)O)C1CCC2C3C(CC[C@@]21C)[C@@]1(C)CC[C@H](O)C(C)(C)C1=C[C@@H]3O` (stereo partly shown) [Compound 50], for which, in experiment [2] (setting [4]), the remaining activity at 0.156 µM worked out at 98.8%, the remaining activity at 0.313 µM was 106%, the remaining activity at 0.625 µM turned out to be 105% and the remaining activity at 1.25 µM is 105%. In experiment [2] (setting [4]), the remaining activity at 2.5 µM worked out at 103%, the remaining activity at 5 µM worked out at 100% and the remaining activity at 10 µM was 98.3%.
In experiment [1], `C[C@H](CCCO)C1CCC2C3C(CC[C@@]21C)[C@@]1(C)CC[C@H](O)C(C)(C)C1=C[C@@H]3O` (stereo partly shown) [Compound 51] returned a DC50 of 9.08 µM. In addition, in experiment [2] (setting [4]), the remaining activity at 0.156 µM turned out to be 98.3%, the remaining activity at 0.313 µM worked out at 102%, the remaining activity at 0.625 µM came out at 101% and the remaining activity at 1.25 µM came out at 92.8%. For the same compound, in experiment [2] (setting [4]), the remaining activity at 2.5 µM was determined as 82.2%, the remaining activity at 5 µM worked out at 67.8% and the remaining activity at 10 µM stood at 47.7%.
As to `COCCC[C@@H](C)C1CCC2C3C(CC[C@@]21C)[C@@]1(C)CC[C@H](O)C(C)(C)C1=C[C@@H]3O` (stereo partly shown) [Compound 55], the DC50 in experiment [1] was found to be 2.29 µM. Moreover, in experiment [2] (setting [4]), the remaining activity at 0.156 µM turned out to be 100%, the remaining activity at 0.313 µM was 100%, the remaining activity at 0.625 µM came out at 83% and the remaining activity at 1.25 µM was found to be 63.8%. In addition, in experiment [2] (setting [4]), the remaining activity at 2.5 µM stood at 43.1%, the remaining activity at 5 µM turned out to be 28.5% and the remaining activity at 10 µM stood at 21.9%.
Regarding `COCCCCC[C@@H](C)C1CCC2C3C(CC[C@@]21C)[C@@]1(C)CC[C@H](O)C(C)(C)C1=C[C@@H]3O` (stereo partly shown) [Compound 95], in experiment [1], the DC50 is 2.34 µM.
On the same count and under the same terms, with `C[C@H](CCCCCO)C1CCC2C3C(CC[C@@]21C)[C@@]1(C)CC[C@H](O)C(C)(C)C1=C[C@@H]3O` (stereo partly shown) [Compound 96] the figure was 2.96 µM.

For the origin of these results see article PMC6277434, “Discovery of a potent HMG-CoA reductase degrader that eliminates statin-induced reductase accumulation and lowers cholesterol” (Nature Communications, 2018).
